# Literature values as cited in patent US20240139480A1, “RETENTIVE DEVICES FOR GASTROINTESTINAL TRACT” (Teva Pharmaceutical Industries Ltd., priority 2021, published 2024).
# Details: given as ester prodrug; extensive intestinal esterase degradation
smiles,measurement,value
CC(C)OC(=O)OCOP(=O)(CO[C@H](C)Cn1cnc2c(N)ncnc21)OCOC(=O)OC(C)C [Tenofovir disoproxil],bioavailability,about 30%
